The source of these data is US9309222B2, “Phenyl linked quinolinyl modulators of RORγt” (Janssen Pharmaceutica NV, priority 2012, dated 2016).

Assay [1] deals with T1, human RORγt ligand binding domain (RORγt LBD) (Homo sapiens, UniProt P51449).
T1 construct: His-tag (N); TurboTEV protease cleavage site (ENLYFQG) (N); made in house; host or cells: E. coli (pHIS1, modified pET vector)
T1 sequence (P51449 with tags, fused parts or gaps): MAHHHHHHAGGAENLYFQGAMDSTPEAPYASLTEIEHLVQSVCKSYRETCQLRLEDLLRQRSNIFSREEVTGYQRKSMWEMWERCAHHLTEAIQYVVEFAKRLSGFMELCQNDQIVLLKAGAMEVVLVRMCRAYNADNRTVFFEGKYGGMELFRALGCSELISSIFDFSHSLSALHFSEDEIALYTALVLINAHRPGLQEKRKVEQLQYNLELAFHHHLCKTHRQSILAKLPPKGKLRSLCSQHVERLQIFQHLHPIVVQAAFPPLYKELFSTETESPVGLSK
Nature of the assay: RORγt ThermoFluor assay (thermal shift, ligand binding affinity). To be noted: estimated from concentration response of thermal shift. As to the method: This approach is applicable to a wide variety of systems, and rigorous in theoretical interpretation through quantitation of equilibrium binding constants (KD).
The shift in the melting point described as a ΔTm is proportional to the concentration and affinity of the ligand.
RORγt ThermoFluor® Assay Construct
Protein and compound solutions are dispensed into black 384-well polypropylene PCR microplates (Abgene) and overlayed with silicone oil (1 μL Fluka, type DC 200) to prevent evaporation.
Fluorescence was measured by continuous illumination with UV light (Hamamatsu LC6) supplied via fiber optic and filtered through a band-pass filter (380-400 nm; >6 OD cutoff). Fluorescence emission of the entire 384-well plate was detected by measuring light intensity using a CCD camera (Sensys, Roper Scientific) filtered to detect 500±25 nm, resulting in simultaneous and independent readings of all 384 wells. Images were collected at each temperature, and the sum of the pixel intensity in a given area of the assay plate was recorded versus temperature. Reference wells contained RORγt without compounds, and the assay conditions were as follows: • 0.065 mg/mL RORγt • 60 μM 1,8-ANS • 100 mM Hepes, pH 7.0 • 10 mM NaCl • 2.5 mM GSH • 0.002% Tween-20
Project compounds were arranged in a pre-dosed mother plate (Greiner Bio-one) wherein compounds are serially diluted in 100% DMSO by 1:2 from a high concentration of 10 mM over 12 columns within a series (column 12 is a reference well containing DMSO, no compound).
The compounds were robotically dispensed directly into assay plates (1×=[…]) using a Hummingbird capillary liquid handling instrument (Digilab). Following compound dispense, protein and dye in buffer was added to achieve the final assay volume of 3 μL, followed by 1 μL of silicone oil.

Assay [2] has as its target T2, human RORγt LBD (Homo sapiens, UniProt P51449).
T2 construct: expressed in transfected cells
T2 sequence (P51449 258-518): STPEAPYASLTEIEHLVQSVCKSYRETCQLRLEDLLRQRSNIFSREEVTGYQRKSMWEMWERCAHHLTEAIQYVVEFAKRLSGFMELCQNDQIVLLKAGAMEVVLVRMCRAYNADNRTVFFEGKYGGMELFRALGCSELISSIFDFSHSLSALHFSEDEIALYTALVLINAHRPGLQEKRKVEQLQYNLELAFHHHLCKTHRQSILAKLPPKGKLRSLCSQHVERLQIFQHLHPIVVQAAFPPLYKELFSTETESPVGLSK
Nature of the assay: RORγt reporter assay (GAL4-RORγt LBD luciferase in HEK293T cells). To be noted: for IC50: HEK293T cells, 24 hours compound treatment; for inhibition at 6 µM: HEK-293T, read-out: RORγt reporter Assay, % inhibition @ 6 μM, HEK293T cells, 6 μM compound. The format is cell-based. The text has this:
A reporter assay was used to test functional activity of RORγt modulatory compounds on transcriptional activation driven by the RORγt LBD. Cells used in the assay were co-transfected with two constructs. The first construct, pBIND-RORγt LBD, contained the wild type human RORγt LBD fused to the DNA binding domain of the GAL4 protein. The second construct, pGL4.31 (Promega Cat no. C935A), contained multiple GAL4 responsive DNA elements upstream of firefly luciferase. […] The mutant construct was called pBIND-RORγt-AF2.
The pBIND vector contains the GAL4 DNA Binding Domain (GAL4 DBD) and the renilla luciferase gene under control of the SV40 promoter. Renilla luciferase expression serves as a control for transfection efficiency and cell viability.
The reporter assay was performed by transiently transfecting HEK293T cells with 5 ng of pBIND-RORγt LBD or pBIND-RORγt LBD-AF2 and 5 μg pGL4.31 (Promega Cat no. C935A) using Fugene 6 (Invitrogen Cat no. E2691) at a 1:6 ratio of DNA:Fugene 6 in a T-75 flask in which cells were at least 80% confluent. Twenty four hours after bulk transfection, cells were plated into 96-well plates at 50,000 cells/well in phenol-red free DMEM containing 5% Lipid Reduced FCS and Pen/Strep. Six hours after plating, cells were treated with compounds for 24 hours. Media was removed and cells were lysed with 50 μL 1× Glo Lysis Buffer (Promega). Dual Glo Luciferase Reagent (50 μL/well) was then added and firefly luciferase luminescence was read on an Envision after a ten minute incubation. Finally, Stop and Glo reagent (50 μL/well) was added and renilla luciferase luminescence was read on an Envision after a ten minute incubation. To calculate the effect of compounds on RORγt activity, the ratio of firefly to renilla luciferase was determined and plotted against compound concentration. Agonist compounds increase RORγt-driven luciferase expression, and antagonist or inverse agonist compounds decrease luciferase expression.
A general note: A reporter such as luciferase makes a cellular process visible.

Where a name gives a salt, the structure may show the parent alone.

In general, Kd refers to the free concentration of one partner at which half of the binding sites on the other are occupied at equilibrium, for simple one-to-one binding. In general, IC50 refers to the concentration needed to halve the response being measured. As usually defined, the inhibition is the drop in the measured response relative to a control, in per cent. Consider `CN(C)c1nc2ccc(C(O)(c3cccnc3)c3ccccn3)cc2c(Cl)c1-c1ccccc1` (stereo not drawn) [Example 43, [4-Chloro-2-(dimethylamino)-3-phenylquinolin-6-yl](pyridin-2-yl)pyridin-3-ylmethanol•TFA], for which the equilibrium dissociation constant (Kd) in assay [1] is 1600 nM. For the same compound, in assay [2], the IC50 is 1100 nM and the inhibition at 6 µM is 99%.
In the same order, the values of `CN(C)c1c(-c2ccccc2)c(Cl)nc2ccc(C(O)(c3cccnc3)c3ccccc3Cl)cc12` (stereo not drawn) [Example 45, [2-Chloro-4-(dimethylamino)-3-phenylquinolin-6-yl](2-chlorophenyl)pyridin-3-ylmethanol•TFA] are 2900 nM, 1600 nM and 75%.
In the same order, the values of `Cc1cc(C(O)(c2ccc3nc(Cl)c(-c4ccccc4)c(Cl)c3c2)c2nccn2C)cc(Cl)n1` (stereo not drawn) [Example 46, (2-Chloro-6-methylpyridin-4-yl)(2,4-dichloro-3-phenylquinolin-6-yl)(1-methyl-1H-imidazol-2-yl)methanol] are 4000 nM, 2000 nM and 94%.
In the same order, the values of `Cn1cncc1C(O)(c1cccnc1)c1ccc2ncc(-c3ccccc3)c(Cl)c2c1` (stereo not drawn) [Example 51, (4-Chloro-3-phenylquinolin-6-yl)(1-methyl-1H-imidazol-5-yl)pyridin-3-ylmethanol•TFA] are 1800 nM, ~4000 nM and 75%.
Consider `OC(c1cccnc1)(c1cccc(Cl)c1)c1ccc2ncc(-c3ccccc3)c(Cl)c2c1` (stereo not drawn) [Example 52, (3-Chlorophenyl)(4-chloro-3-phenylquinolin-6-yl)pyridin-3-ylmethanol], for which, in assay [1], the Kd was 1300 nM. Besides, in assay [2], the IC50 is ~3000 nM and the inhibition at 6 µM is 80%.
As to `Cn1cncc1C(O)(c1ccncc1)c1ccc2ncc(-c3ccccc3)c(Cl)c2c1` (stereo not drawn) [Example 53, (4-Chloro-3-phenylquinolin-6-yl)(1-methyl-1H-imidazol-5-yl)pyridin-4-ylmethanol•TFA], the Kd in assay [1] was 950 nM. In assay [2], the IC50 is ~2000 nM and the inhibition at 6 µM was determined as 61%.
In the same order, the values of `COc1ccc(C(O)(c2cccnc2)c2ccc3nc(Cl)c(-c4ccccc4)c(Cl)c3c2)cc1` (stereo not drawn) [Example 55, (2,4-Dichloro-3-phenylquinolin-6-yl)(4-methoxyphenyl)(pyridin-3-yl)methanol] are 330 nM, 820 nM and 92%.
In the case of `COc1cccc(C(O)(c2cccnc2)c2ccc3ncc(-c4ccccc4)c(Cl)c3c2)c1` (stereo not drawn) [Example 58, (4-Chloro-3-phenylquinolin-6-yl)(3-methoxyphenyl)pyridin-3-ylmethanol], the Kd in assay [1] is 2200 nM. Moreover, in assay [2], the IC50 was ~6000 nM and the inhibition at 6 µM is 40%.
As to `COc1ccc(C(O)(c2cccnc2)c2ccc3ncc(-c4ccccc4)c(Cl)c3c2)cc1` (stereo not drawn) [Example 59, (4-Chloro-3-phenylquinolin-6-yl)(4-methoxyphenyl)pyridin-3-ylmethanol], the Kd in assay [1] is 4400 nM. Moreover, in assay [2], the IC50 was ~6000 nM and the inhibition at 6 µM turned out to be 37%.
For `OC(c1ccc(Cl)nc1)(c1cccc(Cl)c1)c1ccc2ncc(-c3ccccc3)c(Cl)c2c1` (stereo not drawn) [Example 60, (3-Chlorophenyl)(4-chloro-3-phenylquinolin-6-yl)(6-chloropyridin-3-yl)methanol] the same measures were 1300 nM, ~1000 nM and 86%.
In the same order, the values of `OC(c1ccc(Cl)nc1)(c1cccc(F)c1)c1ccc2ncc(-c3ccccc3)c(Cl)c2c1` (stereo not drawn) [Example 61, (4-Chloro-3-phenylquinolin-6-yl)(6-chloropyridin-3-yl)(3-fluorophenyl)methanol] are 1800 nM, 2000 nM and 80%.
For `CN(C)CCN(C)c1nc2ccc(C(O)(c3ccncc3)c3cncn3C)cc2c(Cl)c1-c1ccccc1` (stereo not drawn) [Example 64, (4-Chloro-2-{[2-(dimethylamino)ethyl](methyl)amino}-3-phenylquinolin-6-yl)(1-methyl-1H-imidazol-5-yl)pyridin-4-ylmethanol•TFA] the same measures were 500 nM, ~4000 nM and 87%.
`Cn1cncc1C(O)(c1ccncc1)c1ccc2nc(N3CCC(O)CC3)c(-c3ccccc3)c(Cl)c2c1` (stereo not drawn) [Example 72, 1-{4-Chloro-6-[hydroxy(1-methyl-1H-imidazol-5-yl)pyridin-4-ylmethyl]-3-phenylquinolin-2-yl}piperidin-4-ol•TFA]: in assay [1], the Kd is 8500 nM. In addition, in assay [2], the IC50 was ~2000 nM and the inhibition at 6 µM worked out at 83%.
On to `COC1CCN(c2nc3ccc(C(O)(c4ccncc4)c4cncn4C)cc3c(Cl)c2-c2ccccc2)CC1` (stereo not drawn) [Example 75, [4-Chloro-2-(4-methoxypiperidin-1-yl)-3-phenylquinolin-6-yl](1-methyl-1H-imidazol-5-yl)pyridin-4-ylmethanol•TFA], for which the Kd in assay [1] was 420 nM. Moreover, in assay [2], the IC50 is ~2000 nM and the inhibition at 6 µM turned out to be 88%.
For `Cn1cncc1C(O)(c1ccncc1)c1ccc2nc(N3CCN(c4ccccc4)CC3)c(-c3ccccc3)c(Cl)c2c1` (stereo not drawn) [Example 77, [4-Chloro-3-phenyl-2-(4-phenylpiperazin-1-yl)quinolin-6-yl](1-methyl-1H-imidazol-5-yl)pyridin-4-ylmethanol•TFA] the same measures were 1100 nM, ~4000 nM and 75%.
In the same order, the values of `CCCCc1c(-c2ccccc2)c(Cl)nc2ccc(C(O)(c3ccncc3)c3cncn3C)cc12` (stereo not drawn) [Example 78, (4-Butyl-2-chloro-3-phenylquinolin-6-yl)(1-methyl-1H-imidazol-5-yl)pyridin-4-ylmethanol•TFA] are 270 nM, ~2000 nM and 92%.
For `COc1nc2ccc(C(O)(c3cccnc3)c3cccc(Cl)c3)cc2c(OC)c1-c1ccccc1` (stereo not drawn) [Example 79, (3-Chlorophenyl)(2,4-dimethoxy-3-phenylquinolin-6-yl)pyridin-3-ylmethanol•TFA] the same measures were 510 nM, 1200 nM and 73%.
Turning to `CCOc1nc2ccc(C(O)(c3cccnc3)c3cccc(Cl)c3)cc2c(Cl)c1-c1ccccc1` (stereo not drawn) [Example 81, (4-Chloro-2-ethoxy-3-phenylquinolin-6-yl)(3-chlorophenyl)pyridin-3-ylmethanol•TFA], the dissociation constant Kd in assay [1] is 170 nM. Also, in assay [2], the IC50 worked out at 320 nM and the inhibition at 6 µM worked out at 93%.
